Data as given in PubChem BioAssay (NCI).
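Following 48 hours of exposure in 96-well plates, responses at five concentrations were used to interpolate endpoints linearly. GI50 = concentration required for 50% inhibition of growth. TGI marks complete inhibition of growth.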

How the values were obtained:
Test in all cases: DTP human tumour cell line panel, 48 h
T-47D breast = test system: T-47D breast
BT-549 breast = test system: BT-549 breast
NCI-H460 lung = test system: NCI-H460 lung
HCT-116 colon = test system: HCT-116 colon
A549 NSCLC = test system: A549 NSCLC
HOP-92 NSCLC = test system: HOP-92 NSCLC
SNB-19 CNS = test system: SNB-19 CNS
RPMI-8226 leukemia = test system: RPMI-8226 leukemia
M19-MEL melanoma = test system: M19-MEL melanoma
HOP-18 NSCLC = test system: HOP-18 NSCLC

Row | SMILES | GI50 (T-47D breast) | TGI (T-47D breast) | GI50 (BT-549 breast) | TGI (BT-549 breast) | GI50 (NCI-H460 lung) | TGI (NCI-H460 lung) | GI50 (HCT-116 colon) | TGI (HCT-116 colon) | GI50 (A549 NSCLC) | TGI (A549 NSCLC) | GI50 (HOP-92 NSCLC) | TGI (HOP-92 NSCLC) | GI50 (SNB-19 CNS) | TGI (SNB-19 CNS) | GI50 (RPMI-8226 leukemia) | TGI (RPMI-8226 leukemia) | TGI (M19-MEL melanoma) | TGI (HOP-18 NSCLC)
1 | Oc1[nH]c(N=C2N=c3ccccc3=N2)c2ccccc12 | 8.27 µM | 85.8 µM | 16.7 µM | 54.5 µM | 3.01 µM | 21 µM | 7.3 µM | 29.5 µM | 8.67 µM | 41.1 µM | 15 µM | 49 µM | 15.7 µM | 93 µM | 14.9 µM | 72.1 µM |  | 
2 | COc1ccc(-c2nsc3c2NC(=O)CC3c2ccc3c(c2)OCCO3)cc1 (stereo not given) | 0.454 µM | > 100 µM | 0.674 µM | > 100 µM | 0.396 µM | > 46 µM | 0.526 µM | > 100 µM | 0.603 µM | > 100 µM | 0.356 µM | > 100 µM | 0.924 µM | > 100 µM | 0.492 µM | 42.4 µM |  | 
3 | C=C1C(=O)O[C@H]2[C@H]1CC/C(Cn1cc(Cc3c[nH]c4ccccc34)nn1)=C\CC[C@@]1(C)O[C@@H]21 | 1.87 µM | 4.7 µM | 1.41 µM | 2.76 µM | 3.51 µM | 10.6 µM | 1.06 µM | 2.38 µM | 8.63 µM | 23.5 µM | 2 µM | 3.75 µM | 2.55 µM | 6.33 µM | 2.11 µM | 5.35 µM |  | 
4 | COC1=CC(=O)C(Br)=CC1=O |  |  |  |  |  | > 100 µM |  |  |  | > 100 µM |  | 29.8 µM |  | 32.9 µM |  | 50.6 µM | 32 µM | 
5 | C=C1C(=O)O[C@H]2[C@H]1CC/C(COC(=O)c1cn(C)c3ccccc13)=C\CC[C@@]1(C)O[C@@H]21 | 1.19 µM | 3.42 µM | 0.514 µM | 1.99 µM | 1.73 µM | 3.92 µM | 1.02 µM | 2.24 µM | 1.82 µM | 4.23 µM | 0.365 µM | 2 µM | 1.59 µM | 3.64 µM | 0.217 µM | 0.665 µM |  | 
6 | COc1cccc(-n2ncc3c(N/N=C/c4ccc(C)cc4)ncnc32)c1 | > 25 µM | > 25 µM | > 25 µM | > 25 µM | > 25 µM | > 25 µM | > 25 µM | > 25 µM | > 25 µM | > 25 µM | 2.14 µM | > 25 µM | > 25 µM | > 25 µM | > 25 µM | > 25 µM |  | 
7 | CCN(CC)CCC(=O)OC1C(C)=CC(C)C(=O)CC(C(C)CC2CCC(O)C(OC)C2)OC(=O)C2CCCCN2C(=O)C(=O)[C@@]2(O)OC(CCC2C)CC(OC)\C(C)=C/C=C/C=C/C(C)CC(C)C(=O)C1OC (stereo not given in full) |  | 14.6 µM |  | 15.5 µM |  | 23.8 µM |  | 20.1 µM |  | 16.6 µM |  | 21.9 µM |  | 21.6 µM |  | 43.2 µM |  | 
8 | COc1cccc2c1C(=O)c1c(O)c3c(c(O)c1C2=O)C[C@@](O)(C(C)=O)C[C@@H]3OC1CC([N+]([O-])(Cc2ccccc2)Cc2ccccc2)C(O)C(C)O1 (stereo not given in full) |  |  |  |  |  | 2.39 µM |  |  |  | 5.18 µM |  | 3.14 µM |  | 15.8 µM |  |  | 2.76 µM | 3.55 µM
